According to patent publication US8637523B2, “Compounds for the reduction of beta-amyloid production” (Bristol-Myers Squibb Company, priority 2010, dated 2014):
Where two headings read alike, the source gives them in different places.

Tested on: Aβ42
Experiment: Cellular assay for inhibition of Aβ1-42 production (H4 APP751 SWE clone 8.20)
Type: cell-based
Conditions: H4 APP751 SWE clone 8.20 cells, 19 h incubation
Experimental: Cellular Assays for Inhibition of Aβ1-40 and Aβ1-42 Production
H4 cells stably transfected with APP751 containing the Swedish mutation (H4 APP751 SWE clone 8.20, developed at BMS) were maintained in log phase through twice weekly passage at a 1:20 split. […] Following incubation for 19 h in 5% CO2 at 37° C., plates were briefly centrifuged (1000 rpm, 5 min). A 10 μl aliquot from each well was transferred to a second assay plate (Costar 3709) for Aβ40 measurements. Antibody cocktails were freshly prepared by dilution into 40 mM Tris-HCl (pH 7.4) with 0.2% BSA and added to assay plates. For Aβ42 measurements, antibodies specific for the Aβ42 neoepitope (565, developed at BMS; conjugated to the Wallac reagent (Perkin Elmer)) and the N-terminal sequence of Aβ peptide (26D6, developed at SIBIA; conjugated to APC (Perkin Elmer)) were mixed and 20 μl of the mixture was added to each well of the incubated cell plate yielding a final concentration of 0.8 ng/well 565 and 75 ng/well 26D6. For the Aβ40 measurements, antibodies specific for the Aβ40 neoepitope (TSD, developed at BMS; conjugated to the Wallac reagent (Perkin Elmer)) and 26D6 as described above were mixed and 20 μl of the mixture was added to the 10 μl aliquots which had been removed previously from the cell plate yielding a final concentration of 1.6 ng/well TSD and 17.5 ng/well 26D6. Assay plates containing antibodies were sealed with aluminum foil and incubated overnight at 4° C. Signal was determined using a Viewlux counter (Perkin Elmer) and IC50 values determined using curve fitting in CurveMaster (Excel Fit based).

[1] = unit inferred, read-out: Activity Rating (Aβ42 cellular IC50), numeric value
[2] = read-out: Activity Rating (Aβ42 cellular IC50), class symbol
[3] = 19 h, read-out: Activity Rating (Aβ42 cellular IC50), class symbol
[4] = 19 h, unit inferred, read-out: Activity Rating (Aβ42 cellular IC50), numeric value

| IC50 [2] [nM] | IC50 [3] [nM] | other results | Compound |
| --- | --- | --- | --- |
| – | – | IC50 [1]: 5.6 nM | Clc1cn(-c2ccc3cc2OCC=CCCc2nc(nc4c2CCC4c2ccccc2)N3)cn1 (stereo not shown) [Example 17A, (11E)-7-(4-chloro-1H-imidazol-1-yl)-18-phenyl-10,13,14,16,17,18-hexahydro-15,2-(azeno)-8,4-(metheno)cyclopenta[h][1,10,12]oxadiazacycloheptadecine] |
| 10 to 100 | – | – | Clc1cn(-c2ccc3cc2OCC=CCCc2nc(nc4c2CCC4c2ccccc2)N3)cn1 (stereo not shown) [Example 17B, (11E)-7-(4-chloro-1H-imidazol-1-yl)-18-phenyl-10,13,14,16,17,18-hexahydro-15,2-(azeno)-8,4-(metheno)cyclopenta[h][1,10,12]oxadiazacycloheptadecine] |
| – | < 10 | – | CN1C/C=C\COc2cc(ccc2-n2cnc(Cl)c2)Nc2nc3c(c1n2)CCC3c1ccc(F)cc1F (stereo not shown) [Example 18A, (11Z)-7-(4-chloro-1H-imidazol-1-yl)-18-(2,4-difluorophenyl)-14-methyl-10,13,14,16,17,18-hexahydro-15,2-(azeno)-8,4-(metheno)cyclopenta[h][1,6,10,12]oxatriazacycloheptadecine] |
| – | – | IC50 [4]: 47 nM | CN1C/C=C\COc2cc(ccc2-n2cnc(Cl)c2)Nc2nc3c(c1n2)CCC3c1ccc(F)cc1F (stereo not shown) [Example 18B, (11Z)-7-(4-chloro-1H-imidazol-1-yl)-18-(2,4-difluorophenyl)-14-methyl-10,13,14,16,17,18-hexahydro-15,2-(azeno)-8,4-(metheno)cyclopenta[h][1,6,10,12]oxatriazacycloheptadecine] |
| – | < 10 | – | CN1CCCCOc2cc(ccc2-n2cnc(Cl)c2)Nc2nc3c(c1n2)CCC3c1ccc(F)cc1F (stereo not shown) [Example 19A, 7-(4-chloro-1H-imidazol-1-yl)-18-(2,4-difluorophenyl)-14-methyl-10,11,12,13,14,16,17,18-octahydro-15,2-(azeno)-8,4-(metheno)cyclopenta[h][1,6,10,12]oxatriazacycloheptadecine] |
| 10 to 100 | – | – | CN1CCCCOc2cc(ccc2-n2cnc(Cl)c2)Nc2nc3c(c1n2)CCC3c1ccc(F)cc1F (stereo not shown) [Example 19B, 7-(4-chloro-1H-imidazol-1-yl)-18-(2,4-difluorophenyl)-14-methyl-10,11,12,13,14,16,17,18-octahydro-15,2-(azeno)-8,4-(metheno)cyclopenta[h][1,6,10,12]oxatriazacycloheptadecine] |
| – | < 10 | – | CN1CCCOc2cc(ccc2-n2cnc(Cl)c2)Nc2nc3c(c1n2)CCC3c1ccc(F)cc1F (stereo not shown) [Example 20A, 7-(4-chloro-1H-imidazol-1-yl)-17-(2,4-difluorophenyl)-13-methyl-11,12,13,15,16,17-hexahydro-10H-14,2-(azeno)-8,4-(metheno)cyclopenta[g][1,5,9,11]oxatriazacyclohexadecine] |
| – | – | IC50 [4]: 11 nM | CN1CCCOc2cc(ccc2-n2cnc(Cl)c2)Nc2nc3c(c1n2)CCC3c1ccc(F)cc1F (stereo not shown) [Example 20B, 7-(4-chloro-1H-imidazol-1-yl)-17-(2,4-difluorophenyl)-13-methyl-11,12,13,15,16,17-hexahydro-10H-14,2-(azeno)-8,4-(metheno)cyclopenta[g][1,5,9,11]oxatriazacyclohexadecine] |
| – | – | IC50 [1]: 7.8 nM | N#Cc1ccc2cc1OCC=CCNc1nc(nc3c1CCC3c1ccccc1)N2 (stereo not shown) [Example 21A, (11Z)-7-cyano-18-phenyl-10,13,14,16,17,18-hexahydro-15,2-(azeno)-8,4-(metheno)cyclopenta[h][1,6,10,12]oxatriazacycloheptadecine] |
| 10 to 100 | – | – | N#Cc1ccc2cc1OCC=CCNc1nc(nc3c1CCC3c1ccccc1)N2 (stereo not shown) [Example 22A, (11E)-7-cyano-18-phenyl-10,13,14,16,17,18-hexahydro-15,2-(azeno)-8,4-(metheno)cyclopenta[h][1,6,10,12]oxatriazacycloheptadecine] |
| – | 10 to 100 | – | N#Cc1ccc2cc1OCCCCNc1nc(nc3c1CCC3c1ccccc1)N2 (stereo not shown) [Example 23A, 7-cyano-18-phenyl-10,11,12,13,14,16,17,18-octahydro-15,2-(azeno)-8,4-(metheno)cyclopenta[h][1,6,10,12]oxatriazacycloheptadecine] |
| < 10 | – | – | N#Cc1ccc2cc1OCC=CCNc1nc(nc3c1CCC3c1ccc(F)cc1F)N2 (stereo not shown) [Example 24A, (11Z)-7-cyano-18-(2,4-difluorophenyl)-10,13,14,16,17,18-hexahydro-15,2-(azeno)-8,4-(metheno)cyclopenta[h][1,6,10,12]oxatriazacycloheptadecine] |
| – | – | IC50 [1]: 43 nM | N#Cc1ccc2cc1OCC=CCNc1nc(nc3c1CCC3c1ccc(F)cc1F)N2 (stereo not shown) [Example 24B, (11Z)-7-cyano-18-(2,4-difluorophenyl)-10,13,14,16,17,18-hexahydro-15,2-(azeno)-8,4-(metheno)cyclopenta[h][1,6,10,12]oxatriazacycloheptadecine] |
| – | – | IC50 [4]: 13 nM | CN1C/C=C\COc2cc(ccc2C#N)Nc2nc3c(c1n2)CCC3c1ccc(F)cc1F (stereo not shown) [Example 28A, (11Z)-7-cyano-18-(2,4-difluorophenyl)-14-methyl-10,13,14,16,17,18-hexahydro-15,2-(azeno)-8,4-(metheno)cyclopenta[h][1,6,10,12]oxatriazacycloheptadecine] |
| – | 100 to 1000 | – | CN1C/C=C\COc2cc(ccc2C#N)Nc2nc3c(c1n2)CCC3c1ccc(F)cc1F (stereo not shown) [Example 28B, (11Z)-7-cyano-18-(2,4-difluorophenyl)-14-methyl-10,13,14,16,17,18-hexahydro-15,2-(azeno)-8,4-(metheno)cyclopenta[h][1,6,10,12]oxatriazacycloheptadecine] |
| < 10 | – | – | CN1CC=CCOc2cc(ccc2C#N)Nc2nc3c(c1n2)CCC3c1ccccc1 (stereo not shown) [Example 29A, (11Z)-7-cyano-14-methyl-18-phenyl-10,13,14,16,17,18-hexahydro-15,2-(azeno)-8,4-(metheno)cyclopenta[h][1,6,10,12]oxatriazacycloheptadecine] |
| 100 to 1000 | – | – | CN1CC=CCOc2cc(ccc2C#N)Nc2nc3c(c1n2)CCC3c1ccccc1 (stereo not shown) [Example 29B, (11Z)-7-cyano-14-methyl-18-phenyl-10,13,14,16,17,18-hexahydro-15,2-(azeno)-8,4-(metheno)cyclopenta[h][1,6,10,12]oxatriazacycloheptadecine] |
| 10 to 100 | – | – | CN1CC=CCOc2cc(ccc2C#N)Nc2nc3c(c1n2)CCC3c1ccccc1 (stereo not shown) [Example 30A, (11E)-7-cyano-14-methyl-18-phenyl-10,13,14,16,17,18-hexahydro-15,2-(azeno)-8,4-(metheno)cyclopenta[h][1,6,10,12]oxatriazacycloheptadecine] |
| 10 to 100 | – | – | CN1CC=CCOc2cc(ccc2C#N)Nc2nc3c(c1n2)CCC3c1ccccc1 (stereo not shown) [Example 30B, (11E)-7-cyano-14-methyl-18-phenyl-10,13,14,16,17,18-hexahydro-15,2-(azeno)-8,4-(metheno)cyclopenta[h][1,6,10,12]oxatriazacycloheptadecine] |
| – | 10 to 100 | – | CN1CCCOc2cc(ccc2C#N)Nc2nc3c(c1n2)CCC3c1ccccc1 (stereo not drawn) [Example 31A, 7-cyano-β-methyl-17-phenyl-11,12,13,15,16,17-hexahydro-10H-14,2-(azeno)-8,4-(metheno)cyclopenta[g][1,5,9,11]oxatriazacyclohexadecine] |
| – | – | IC50 [4]: 31 nM | CN1CCCOc2cc(ccc2C#N)Nc2nc3c(c1n2)CCC3c1ccccc1 (stereo not drawn) [Example 31B, 7-cyano-β-methyl-17-phenyl-11,12,13,15,16,17-hexahydro-10H-14,2-(azeno)-8,4-(metheno)cyclopenta[g][1,5,9,11]oxatriazacyclohexadecine] |
| – | 10 to 100 | – | N#Cc1ccc2cc1OCCCNc1nc(nc3c1CCC3c1ccc(F)cc1F)N2 (stereo not shown) [Example 33A, 7-cyano-17-(2,4-difluorophenyl)-11,12,13,15,16,17-hexahydro-10H-14,2-(azeno)-8,4-(metheno)cyclopenta[g][1,5,9,14]oxatriazacyclohexadecine] |
| – | – | IC50 [4]: 37 nM | N#Cc1ccc2cc1OCCCNc1nc(nc3c1CCC3c1ccc(F)cc1F)N2 (stereo not shown) [Example 33B, 7-cyano-17-(2,4-difluorophenyl)-11,12,13,15,16,17-hexahydro-10H-14,2-(azeno)-8,4-(metheno)cyclopenta[g][1,5,9,14]oxatriazacyclohexadecine] |
| – | 10 to 100 | – | CN1CCCOc2cc(ccc2C#N)Nc2nc3c(c1n2)CCC3c1ccc(F)cc1F (stereo not shown) [Example 35A, 7-cyano-17-(2,4-difluorophenyl)-13-methyl-11,12,13,15,16,17-hexahydro-10H-14,2-(azeno)-8,4-(metheno)cyclopenta[g][1,5,9,11]oxatriazacyclohexadecine] |
| – | – | IC50 [4]: 140 nM | CN1CCCOc2cc(ccc2C#N)Nc2nc3c(c1n2)CCC3c1ccc(F)cc1F (stereo not shown) [Example 35B, 7-cyano-17-(2,4-difluorophenyl)-13-methyl-11,12,13,15,16,17-hexahydro-10H-14,2-(azeno)-8,4-(metheno)cyclopenta[g][1,5,9,11]oxatriazacyclohexadecine] |
